Test system: PDE4
Assay: Evaluation of PDE4 inhibition (scintillation proximity assay)
Type: biochemical
Conditions: inhibition rate relative to control, test compound at 1 μM
Procedure: Test Example 1 Evaluation of PDE4 Inhibition
The PDE4 inhibitory activity was measured by using scintillation proximity assay (SPA) as follows: one in which a sample compound dissolved in dimethyl sulfoxide was diluted 10-fold with a buffer solution for reaction containing 50 mM Tris-HCl, pH 7.5, 8.3 mM MgCl2, 1.7 mM EDTA and 0.3 mg/mL bovine serum albumin (BSA) was added at 10 μL/well to a 96-well assay plate. Further, PDE4 diluted 750-fold with a buffer solution for reaction was added at 50 μL/well, then [2,8-^3H]-Adenosine-3′,5′-cyclic phosphate triethylammonium salt diluted 1000-fold with a buffer solution for reaction was added at 40 μL/well, and the plate was left standing at room temperature for 120 minutes. Thereafter, a suspension of RNA binding YSi-SPA Beads containing 200 mM ZnSO4 was added at 50 μL/well, and the plate was left standing at room temperature for 15 minutes to adsorb the enzyme reaction product onto the Beads. Thereafter, the radioactivity was measured with a liquid scintillation counter for 96-well plates. When one supplemented with only a buffer solution for reaction without adding the enzyme preparation was used as a blank and one supplemented with the enzyme preparation but supplemented with only dimethyl sulfoxide instead of the sample solution was used as a control, the inhibition rate of the test compound relative to the control was calculated according to the following calculation expression: Inhibition rate (%)={1−(Numeric value from the addition of each sample−Blank value)/(Control value−Blank value)}×100

| Structure (SMILES) | PDE4 inhibitory activity (1 μM (%)) [%] |
| --- | --- |
| C[C@H]1CNCCN1c1nc2c(C(F)(F)F)c(F)cc(-n3cccn3)c2o1 [Example 119, (S)-5-Fluoro-2-(2-methylpiperazin-1-yl)-7-(1H-pyrazol-1-yl)-4-(trifluoromethyl)benzoxazole] | 91 |
| C[C@H]1CNCCN1c1nc2c(F)c(Cl)cc(-n3cccn3)c2o1 [Example 130, (S)-5-Chloro-4-fluoro-2-(2-methylpiperazin-1-yl)-7-(1H-pyrazol-1-yl)benzoxazole] | 83 |
| C[C@H]1CNCCN1c1nc2cc(Cl)cc(-c3ccsc3Cl)c2o1 [Example 64, (S)-5-Chloro-7-(2-chlorothiophen-3-yl)-2-(2-methylpiperazin-1-yl)benzoxazole] | 73 |
| C[C@H]1CNCCN1c1nc2cc(Cl)c(OC(F)(F)F)c(-c3nccs3)c2o1 [Example 160, (S)-5-Chloro-2-(2-methylpiperazin-1-yl)-7-(thiazol-2-yl)-6-(trifluoromethoxy)benzoxazole] | 86 |
| Cc1cnc(-c2cc(Cl)cc3nc(N4CCNC[C@@H]4C)oc23)s1 [Example 63, (S)-5-Chloro-2-(2-methylpiperazin-1-yl)-7-(5-methylthiazol-2-yl)benzoxazole] | 87 |
| C[C@H]1CNCCN1c1nc2c(OC(F)(F)F)c(F)cc(-c3ccccn3)c2o1 [Example 134, (S)-5-Fluoro-2-(2-methylpiperazin-1-yl)-7-(pyridin-2-yl)-4-(trifluoromethoxy)benzoxazole] | 88 |
| Cc1c(Cl)cc(-c2nccs2)c2oc(N3CCNC[C@@H]3C)nc12 [Example 132, (S)-5-Chloro-4-methyl-2-(2-methylpiperazin-1-yl)-7-(thiazol-2-yl)benzoxazole] | 94 |
| CCCC[C@H]1CNCCN1c1nc2cc(Cl)cc(CC)c2o1 [Example 13, (S)-2-(2-n-Butylpiperazin-1-yl)-5-chloro-7-ethylbenzoxazole] | <10 |
| Cc1cc(-c2nccs2)c2oc(N3CCNC[C@@H]3C)nc2c1 [Example 115, (S)-5-methyl-2-(2-methylpiperazin-1-yl)-7-(thiazol-2-yl)benzoxazole] | 91 |
| C[C@H]1CNCCN1c1nc2cc(Cl)cc(C3CCCC3)c2o1 [Example 31, (S)-5-Chloro-7-cyclopentyl-2-(2-methylpiperazin-1-yl)benzoxazole] | 51 |
| C[C@H]1CNCCN1c1nc2cc(Cl)cc(-c3ccsc3)c2o1 [Example 16, (S)-5-Chloro-2-(2-methylpiperazin-1-yl)-7-(thiophen-3-yl)benzoxazole] | 75 |
| CCc1cc(Cl)cc2nc(N3CCNC[C@@H]3CC(C)C)oc12 [Example 12, (S)-5-Chloro-7-ethyl-2-(2-isobutylpiperazin-1-yl)benzoxazole] | <10 |
| C[C@H]1CNCCN1c1nc2c(-c3ccccc3)c(Cl)cc(-c3ccccn3)c2o1 [Example 148, (S)-5-Chloro-2-(2-methylpiperazin-1-yl)-4-phenyl-7-(pyridin-2-yl)benzoxazole] | 94 |
| C[C@H]1CNCCN1c1nc2cc(Cl)cc(OC3CCCC3)c2o1 [Example 28, (S)-5-Chloro-7-(cyclopentyloxy)-2-(2-methylpiperazin-1-yl)benzoxazole] | 81 |
| C[C@H]1CNCCN1c1nc2cc(Cl)cc(-c3ccccn3)c2o1 [Example 41, (S)-5-Chloro-2-(2-methylpiperazin-1-yl)-7-(pyridin-2-yl)benzoxazole] | 93 |
| C[C@H]1CNCCN1c1nc2c(F)c(Cl)c(F)c(-c3nccs3)c2o1 [Example 121, (S)-5-Chloro-4,6-difluoro-2-(2-methylpiperazin-1-yl)-7-(thiazol-2-yl)benzoxazole] | 62 |
| C[C@H]1CNCCN1c1nc2cc(Cl)cc(C(=O)O)c2o1 [Example 99, (S)-5-Chloro-7-carboxy-2-(2-methylpiperazin-1-yl)benzoxazole] | <10 |
| C[C@H]1CNCCN1c1nc2cc(Cl)cc(OC3CCCCC3)c2o1 [Example 52, (S)-5-Chloro-7-(cyclohexyloxy)-2-(2-methylpiperazin-1-yl)benzoxazole] | 57 |
| C[C@H]1CNCCN1c1nc2c(OC(F)(F)F)c(Cl)cc(-c3nccs3)c2o1 [Example 87, (S)-5-Chloro-2-(2-methylpiperazin-1-yl)-7-(thiazol-2-yl)-4-(trifluoromethoxy)benzoxazole] | 96 |

| Structure (SMILES) | PDE4 inhibitory activity (1 μM (%)) [%] |
| --- | --- |
| C[C@H]1CNCCN1c1nc2cc(Cl)cc(N3CCCCC3)c2o1 [Example 22, (S)-5-Chloro-2-(2-methylpiperazin-1-yl)-7-(piperidin-1-yl)benzoxazole] | 40 |
| C[C@H]1CNCCN1c1nc2cc(Cl)cc(-c3ncon3)c2o1 [Example 105, (S)-5-Chloro-2-(2-methylpiperazin-1-yl)-7-(1,2,4-oxadiazol-3-yl)benzoxazole] | 61 |
| Cc1cccnc1-c1cc(Cl)cc2nc(N3CCNC[C@@H]3C)oc12 [Example 68, (S)-5-Chloro-2-(2-methylpiperazin-1-yl)-7-(3-methylpyridin-2-yl)benzoxazole] | 38 |
| C[C@H]1CNCCN1c1nc2c(F)c(F)cc(-n3cccn3)c2o1 [Example 91, (S)-4,5-Difluoro-2-(2-methylpiperazin-1-yl)-7-(1H-pyrazol-1-yl)benzoxazole] | 89 |
| C[C@@H]1CNCCN1c1nc2c(C(F)(F)F)c(Cl)cc(-c3nccs3)c2o1 [Example 179, (R)-5-Chloro-2-(2-methylpiperazin-1-yl)-7-(thiazol-2-yl)-4-(trifluoromethyl)benzoxazole] | 79 |
| Cc1cc(Cl)cc2nc(N3CCNC[C@@H]3C)oc12 [Example 154, (S)-5-Chloro-7-methyl-2-(2-methylpiperazin-1-yl)benzoxazole] | 39 |
| C[C@H]1CNCCN1c1nc2cc(Cl)cc(-n3cccn3)c2o1 [Example 33, (S)-5-Chloro-2-(2-methylpiperazin-1-yl)-′7-(1H-pyrazol-1-yl)benzoxazole] | 93 |
| C[C@H]1CNCCN1c1nc2cc(Cl)cc(-c3ccccc3CO)c2o1 [Example 48, (S)-5-Chloro-2-(2-methylpiperazin-1-yl)-7-(2-hydroxymethylphenyl)benzoxazole] | 53 |
| Cc1c(Cl)cc(-n2cccn2)c2oc(N3CCNC[C@@H]3C)nc12 [Example 133, (S)-5-Chloro-4-methyl-2-(2-methylpiperazin-1-yl)-7-(1H-pyrazol-1-yl)benzoxazole] | 92 |
| CCCOc1cc(Cl)cc2nc(N3CCNC[C@@H]3C)oc12 [Example 30, (S)-5-Chloro-2-(2-methylpiperazin-1-yl)-7-n-propoxybenzoxazole] | 61 |
| C[C@H]1CNCCN1c1nc2cc(Cl)cc(-c3ccno3)c2o1 [Example 109, (S)-5-Chloro-7-(isoxazol-5-yl)-2-(2-methylpiperazin-1-yl)benzoxazole] | 61 |
| C[C@H]1CNCCN1c1nc2cc(Cl)cc(-c3ncc(C(N)=O)s3)c2o1 [Example 65, (S)-5-Chloro-7-(5-carbamoylthiazol-2-yl)-2-(2-methylpiperazin-1-yl)benzoxazole] | 83 |
| C[C@H]1CNCCN1c1nc2cc(Cl)cc(C(=O)N(C)C)c2o1 [Example 96, (S)-5-Chloro-7-dimethylaminocarbonyl-2-(2-methylpiperazin-1-yl)benzoxazole] | <10 |
| C[C@H]1CNCCN1c1nc2cc(Cl)cc(-c3ccc(Cl)s3)c2o1 [Example 57, (S)-5-Chloro-7-(5-chlorothiophen-2-yl)-2-(2-methylpiperazin-1-yl)benzoxazole] | 54 |
| C[C@H]1CNCCN1c1nc2cc(F)cc(-c3nccs3)c2o1 [Example 103, (S)-5-Fluoro-2-(2-methylpiperazin-1-yl)-7-(thiazol-2-yl)benzoxazole] | 96 |
| C[C@H]1CNCCN1c1nc2cc(Cl)cc(S(C)(=O)=O)c2o1 [Example 145, (S)-5-Chloro-2-(2-methylpiperazin-1-yl)-7-(methylsulfonyl)benzoxazole] | 80 |
| CC(C)Cc1cc(Cl)cc2nc(N3CCNC[C@@H]3C)oc12 [Example 47, (S)-5-Chloro-7-isobutyl-2-(2-methylpiperazin-1-yl)benzoxazole] | 35 |
| CCc1cc(Cl)cc2nc(N3CCNC[C@@H]3CC)oc12 [Example 14, (S)-5-Chloro-7-ethyl-2-(2-ethylpiperazin-1-yl)benzoxazole] | 37 |

— patent US9890142B2, “PDE4 inhibitor” (Meiji Seika Pharma Co., Ltd., priority 2013, dated 2018)
